In the NIST ThermoML archive (doi:10.1021/je900757k):

Experiment: isobaric coefficient of expansion
Conditions: Liquid, DSC

CCCCCCCCCCC [undecane]
isobaric coefficient of expansion
Conditions | 278.15 K | 288.15 K | 298.15 K | 308.15 K | 318.15 K | 328.15 K | 338.15 K | 348.15 K
5000 kPa | 0.000936 1/K | 0.000948 1/K | 0.000965 1/K | 0.000979 1/K | 0.000993 1/K | 0.00101 1/K | 0.00102 1/K | 0.00103 1/K
10000 kPa | 0.000913 1/K | 0.000924 1/K | 0.000937 1/K | 0.00095 1/K | 0.00096 1/K | 0.000971 1/K | 0.000983 1/K | 0.000991 1/K
15000 kPa | 0.000893 1/K | 0.0009 1/K | 0.000912 1/K | 0.000921 1/K | 0.000933 1/K | 0.00094 1/K | 0.000946 1/K | 0.000948 1/K
20000 kPa | 0.000873 1/K | 0.000879 1/K | 0.00089 1/K | 0.000897 1/K | 0.000901 1/K | 0.000909 1/K | 0.000915 1/K | 0.000917 1/K
25000 kPa | 0.000854 1/K | 0.000856 1/K | 0.000865 1/K | 0.00087 1/K | 0.000874 1/K | 0.000884 1/K | 0.000888 1/K | 0.00089 1/K
30000 kPa | 0.000836 1/K | 0.000843 1/K | 0.000845 1/K | 0.000848 1/K | 0.000851 1/K | 0.000857 1/K | 0.00086 1/K | 0.000859 1/K
35000 kPa | 0.000819 1/K | 0.00082 1/K | 0.000825 1/K | 0.000828 1/K | 0.000829 1/K | 0.000833 1/K | 0.000834 1/K | 0.000833 1/K
40000 kPa | 0.000797 1/K | 0.000801 1/K | 0.000805 1/K | 0.000806 1/K | 0.000808 1/K | 0.000806 1/K | 0.00081 1/K | 0.00081 1/K
45000 kPa | 0.000785 1/K | 0.000787 1/K | 0.00079 1/K | 0.000789 1/K | 0.000787 1/K | 0.00079 1/K | 0.000789 1/K | 0.000787 1/K
50000 kPa | 0.000773 1/K | 0.000773 1/K | 0.000773 1/K | 0.000774 1/K | 0.000775 1/K | 0.000775 1/K | 0.000771 1/K | 0.000769 1/K
55000 kPa | 0.000765 1/K | 0.000756 1/K | 0.000759 1/K | 0.000759 1/K | 0.000758 1/K | 0.000759 1/K | 0.000754 1/K | 0.000752 1/K
